In assay [1] the test system is OR71a. The arrangement: method as in earlier work. To be noted: DoOR database value, OR71a; ref DoOR; cited from earlier work.
Assay [2] deals with T1, Drosophila OR49b (Drosophila melanogaster, UniProt Q9V6H2).
T1 construct: expressed in transfected cells
T1 sequence (Q9V6H2 1-375): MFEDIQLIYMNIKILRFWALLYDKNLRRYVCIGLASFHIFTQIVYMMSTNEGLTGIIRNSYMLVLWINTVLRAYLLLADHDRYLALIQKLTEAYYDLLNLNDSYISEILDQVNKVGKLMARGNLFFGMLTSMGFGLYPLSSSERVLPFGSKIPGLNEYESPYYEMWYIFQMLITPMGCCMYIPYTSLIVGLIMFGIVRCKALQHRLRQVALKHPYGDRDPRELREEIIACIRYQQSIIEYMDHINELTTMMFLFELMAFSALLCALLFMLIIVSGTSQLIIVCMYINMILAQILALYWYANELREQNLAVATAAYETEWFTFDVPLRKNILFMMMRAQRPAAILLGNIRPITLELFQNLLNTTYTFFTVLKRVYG
T1 sequence (Q9VNB5 1-486 partner): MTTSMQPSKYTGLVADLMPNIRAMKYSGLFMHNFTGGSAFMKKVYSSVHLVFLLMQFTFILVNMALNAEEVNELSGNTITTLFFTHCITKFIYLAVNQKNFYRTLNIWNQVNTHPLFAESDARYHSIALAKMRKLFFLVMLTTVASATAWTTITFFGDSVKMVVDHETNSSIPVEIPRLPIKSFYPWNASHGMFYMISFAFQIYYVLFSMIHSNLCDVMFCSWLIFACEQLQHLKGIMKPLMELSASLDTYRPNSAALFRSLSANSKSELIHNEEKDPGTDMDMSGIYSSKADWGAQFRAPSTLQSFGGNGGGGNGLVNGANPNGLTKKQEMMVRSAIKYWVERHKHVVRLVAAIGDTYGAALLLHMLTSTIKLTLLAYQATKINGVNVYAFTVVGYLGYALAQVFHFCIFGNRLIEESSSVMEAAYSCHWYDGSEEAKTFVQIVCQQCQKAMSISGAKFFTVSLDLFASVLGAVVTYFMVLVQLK
In words: cell-based. Also on record: GCaMP6 calcium fluorescence in stable HEK293 OR+ORCO lines; peak dF normalised to 50 uM VUAA1 (=1). To be noted: HEK293; relative to 50 uM VUAA1 response; below 0.05 set to 0; read-out: % activation. The method, then: (§1) Twelve thousand to 18,000 cells were plated into each well of a black wall, transparent bottom 384-well microplate (Greiner) 48 h or 72 h before the measurements and were simultaneously treated with 1 μg/mL doxycycline. […] The plate has 24 columns, thus we could record responses in up to eight different cell lines in each plate. On the day of the experiment, the growth medium was replaced with 20 µL assay buffer/well (140 mM NaCl, 5 mM KCl, 2 mM CaCl2, 1 mM MgCl2, 5 mM HEPES-Na, 20 mM glucose, pH 7.3, 340 mOsm). […] Baseline fluorescence (F0) was recorded for 5 s, after which 7 µL VOC buffer (140 mM NaCl, 5 mM KCl, 2 mM CaCl2, 1 mM MgCl2, 5 mM HEPES-Na, 31 mM glucose, 0.1% DMSO, pH 7.3, 340 mOsm) was injected into each well in one row and the fluorescence response was recorded for an additional 30 s, at a rate of one read/sec. VOC solutions (VOC buffer with 4× concentration of the final measured VOC concentration, 9 µL/well was injected) were measured on the same wells in a second round with the same protocol. Each individual concentration of a specific VOC sample was recorded in three wells for the same cell line on the same microplate. The raw data were exported in xls file format, F0 and FMAX values, and the fluorescence intensity changes (∆F) were calculated in Excel (Microsoft) (Supplementary file Data summary.xlsx) using the following equation: ΔF=FMAX-F0/F0 (see also Fig. 1C). On each plate, we recorded the response of each cell line to 50 µM VUAA1. The average of these ∆F values of each cell line were used to calculate the VUAA1-normalized values for the rest of the plate, by dividing VOC response ∆F values by the average VUAA1 response ∆F value of the corresponding OR cell line. Each VOC-OR combination was measured three times as tec The recorded FMAX, F0, ∆F, VUAA1-normalized ∆F values, as well as the OR name, the name of the tested sample, and the final concentration for each well were copied into supplementary file Data summary.xlsx, that was used to summarize all the plates recorded. Here, the averages of the measurements were calculated for each receptor-VOC-concentration combination. […] Each VOC was measured at 1, 10, and 100 µM final concentration on each receptor. VUAA1-normalized response was calculated as described in methods.

Assay [3] concerns the target T2, Drosophila OR71a (Drosophila melanogaster, UniProt Q9VUK5).
T2 construct: expressed in transfected cells
T2 sequence (Q9VUK5 1-378): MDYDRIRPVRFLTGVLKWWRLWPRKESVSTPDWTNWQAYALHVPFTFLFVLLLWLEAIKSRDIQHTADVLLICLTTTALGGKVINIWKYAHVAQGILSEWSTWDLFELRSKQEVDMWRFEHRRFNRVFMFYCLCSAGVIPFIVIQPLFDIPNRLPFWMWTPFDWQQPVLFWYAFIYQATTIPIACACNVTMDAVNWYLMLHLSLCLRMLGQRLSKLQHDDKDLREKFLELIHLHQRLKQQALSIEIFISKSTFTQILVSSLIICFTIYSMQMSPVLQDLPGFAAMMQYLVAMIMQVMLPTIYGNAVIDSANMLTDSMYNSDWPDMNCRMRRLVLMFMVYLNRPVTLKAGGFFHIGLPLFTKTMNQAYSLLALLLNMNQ
T2 sequence (Q9VNB5 1-486 partner): T1 sequence (Q9VNB5 1-486 partner)
The assay is described as follows: cell-based. Also on record: GCaMP6 calcium fluorescence in stable HEK293 OR+ORCO lines; peak dF normalised to 50 uM VUAA1 (=1). To be noted: HEK293; relative to 50 uM VUAA1 response; below 0.05 set to 0; read-out: % activation. The method, then:
as §1

The target of assay [4] is T3, Drosophila OR85b (Drosophila melanogaster, UniProt Q9VHQ7).
T3 construct: expressed in transfected cells
T3 sequence (Q9VHQ7 1-390): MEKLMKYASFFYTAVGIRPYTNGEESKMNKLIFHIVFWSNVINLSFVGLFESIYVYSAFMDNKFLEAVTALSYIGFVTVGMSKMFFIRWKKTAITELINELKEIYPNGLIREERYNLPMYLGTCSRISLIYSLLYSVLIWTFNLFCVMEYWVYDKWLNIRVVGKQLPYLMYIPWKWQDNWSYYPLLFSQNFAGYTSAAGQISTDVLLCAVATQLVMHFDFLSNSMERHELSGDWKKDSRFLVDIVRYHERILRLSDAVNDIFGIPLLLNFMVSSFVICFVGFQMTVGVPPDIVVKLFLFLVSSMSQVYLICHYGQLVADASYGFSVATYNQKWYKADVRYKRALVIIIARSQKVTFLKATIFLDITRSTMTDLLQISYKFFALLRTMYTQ
T3 sequence (Q9VNB5 1-486 partner): T1 sequence (Q9VNB5 1-486 partner)
In words: cell-based. Also on record: GCaMP6 calcium fluorescence in stable HEK293 OR+ORCO lines; peak dF normalised to 50 uM VUAA1 (=1). To be noted: HEK293; relative to 50 uM VUAA1 response; below 0.05 set to 0; read-out: % activation. The method, then:
as §1

These results are taken from article PMC10709440, “High-throughput ligand profile characterization in novel cell lines expressing seven heterologous insect olfactory receptors for the detection of volatile plant biomarkers” (Scientific Reports, 2023).

With `OCCc1ccccc1` [phenethyl alcohol], the “OR71a DoOR response” value in assay [1] is given as 0.17. Besides, in assay [2], the activity at 100 µM is 9.32%. For the same compound, the activity at 1 µM in assay [3] was 8.62%; in assay [4] it was 9.88%. Besides, the activity at 10 µM in assay [4] came to 7.58%.
